# Source: patent US20160030415A1, “TREATMENT AND PROPHYLAXIS OF KIDNEY DISEASES” (priority 2013, published 2016)
# Tests used:
# [1] = system: STZ induced diabetic nephropathy in rats; experiment: Study 3: HCQ and its combination with Losartan, Telmisartan, Azilsartan and Ramipril; assay type: in vivo, Wistar rats; settings: oral once daily 8 weeks
# Experimental: The methods described in Terri et al, Diabetes Volume, 1997, 46:1612-1618, and Takashi et al, Jpn J. Pharmacol, 1997, 75, 59-64, were followed for inducing Diabetes in rats by injecting Streptozotocin. The Efficacy of the drugs was tested in two different models, one involving comparison with diabetic control (i.e. Diabetic Rats not treated with any medication) and the other involving comparison with the anti-diabetic control group (i.e. Diabetic rats administered Glimepiride) in two separate studies.
# Male Wistar rats weighing 150-350 g were divided randomly into 29 groups consisting of 6 animals each. Diabetes was induced in rats by single administration of streptozotocin (55 mg/kg/i.p) dissolved in 0.1 M-citrate buffer, pH 4.5. Group 1 (normal control) consisted of normal rats that neither received streptozotocin nor any test drug; Group 2 consisted of normal rats treated with vehicle, Group 3 served as Streptozotocin (STZ) induced diabetic control. Group 4 was diabetic rats treated with Losartan (LT) (5.5 mg/kg); Group 5 was diabetic rats treated with LT (11 mg/kg); Group 6 was diabetic rats treated with Hydroxychloroquine (HCQ) (22.5 mg/kg), Group 7 was diabetic rats treated with HCQ (45 mg/kg); Group 8 was diabetic rats treated with combination of LT (5.5 mg/kg) and HCQ (22.5 mg/kg); Group 9 was diabetic rats treated with combination of LT (5.5 mg/kg) and HCQ (45 mg/kg); Group 10 was diabetic rats treated with LT (11 mg/kg) and HCQ (22.5 mg/kg); Group 11 was diabetic rats treated with LT (11 mg/kg) and HCQ (45 mg/kg); Group 12 was diabetic rats treated with Telmisartan (TL) (5 mg/kg); Group 13 was diabetic rats treated with Telmisartan (TL) (10 mg/kg); Group 14 was diabetic rats treated with the combination of TL (5 mg/kg) and HCQ (22.5 mg/kg); Group 15 was diabetic rats treated with the combination of TL (5 mg/kg) and HCQ (45 mg/kg); Group 16 was diabetic rats treated with the combination of TL (10 mg/kg) and HCQ (22.5 mg/kg); Group 17 was diabetic rats treated with the combination of TL (10 mg/kg) and HCQ (45 mg/kg); Group 18 was diabetic rats treated with Azilsartan (AZ) (2 mg/kg); Group 19 was diabetic rats treated with Azilsartan (AZ) (4 mg/kg); Group 20 was diabetic rats treated with combination of AZ (2 mg/kg) and HCQ (22.5 mg/kg); Group 21 was diabetic rats treated with combination of AZ (2 mg/kg) and HCQ (45 mg/kg); Group 22 was diabetic rats treated with combination of AZ (4 mg/kg) and HCQ (22.5 mg/kg); Group 23 diabetic rats treated with combination of AZ (4 mg/kg) and HCQ (45 mg/kg); Group 24 was diabetic rats treated with Ramipril (RM) (0.2 mg/kg); Group 25 was diabetic rats treated with RM (2.3 mg/kg); Group 26 was diabetic rats treated with combination of RM […]) and HCQ (22.5 mg/kg); Group 27 was diabetic rats treated with combination of RM (0.2 mg/kg) and HCQ (45 mg/kg); Group 28 was diabetic rats treated with combination of RM (2.3 mg/kg) and HCQ (22.5 mg/kg); Group 29 was diabetic rats treated with combination of RM (2.3 mg/kg) and HCQ (45 mg/kg). The study drugs (LT and HCQ) were dissolved in distilled water and other study drugs (AZ, RM and TL) were suspended in 0.5% w/v sodium carboxy methyl cellulose (CMC) and administered orally once a day for eight weeks. Biochemical parameters like serum urea, serum creatinine, serum protein, and renal oxidative stress parameters like TBARS and GSH were assessed after the completion of eighth week of the study.
# [2] = system: Streptozotocin (STZ) induced diabetic rats; experiment: Study 2: HCQ and its combination with Losartan in comparison with anti-diabetic control (Glimepiride) in renal damage; assay type: in vivo, Wistar rats; settings: for Serum Creatinine after 8th week / Serum Creatinine after 8th week (% Control) / Total Serum Protein Levels after 8th week / Total Serum Protein Levels after 8th week (% Control): Glimepiride 8 mg/kg alone (antidiabetic control) or with Losartan 11 mg/kg and/or Hydroxychloroquine 45 mg/kg, oral once daily; for Total Protein in Kidney Homogenate (% Control) / Total Protein in Kidney Homogenate Mean / TBARS (% Control) / TBARS Mean: after 8th week, Glimepiride 8 mg/kg alone or with Losartan 11 mg/kg and/or Hydroxychloroquine 45 mg/kg; for TBARS (% Control) / TBARS Mean: kidney homogenate
# Experimental: The Efficacy of the drugs was tested in two different models, one involving comparison with diabetic control (i.e. Diabetic Rats not treated with any medication) and the other involving comparison with the anti-diabetic control group (i.e. Diabetic rats administered Glimepiride) in two separate studies. 30 Wistar rats of either sex weighing 150-250 g were divided randomly into 5 groups consisting of 6 animals each. Diabetes was induced in rats by single administration of Streptozotocin (STZ)(55 mg/kg/i.p) dissolved in 0.1 M-citrate buffer, pH 4.5. Group 1 (normal control) consisted of normal rats that neither received streptozotocin nor any test drug; Group 2 served as Anti-Diabetic control wherein diabetic rats were treated with antidiabetic drug Glimepiride. Group 3 was diabetic rats treated with Losartan (11 mg/kg); Group 4 was diabetic rats treated with Hydroxychloroquine (45 mg/kg) and Group 5 was diabetic rats treated with combination of Hydroxychloroquine (45 mg/kg) and Losartan (11 mg/kg). The study drugs were dissolved/suspended in distilled water and administered orally once a day for eight weeks. The diabetes mellitus induced nephropathy was assessed by estimating the level of serum creatinine and total serum protein content after completion of eighth week of study. TBARS and Total Protein were measured as markers of renal oxidative stress in Kidney Homogenate after completion of eighth week of study.
# [3] = dose mg/kg: LT 5.5, TL 5, AZ 2, RM 0.2, HCQ 22.5, alone or combined with HCQ 22.5
# [4] = dose mg/kg: LT 11, TL 10, AZ 4, RM 2.3, HCQ 45, alone or combined with HCQ 45
Structure (SMILES),"Creatinine clearance [1, 3]","GSH [1, 3]","Serum creatinine [1, 3]","Serum protein [1, 3]","Serum urea [1, 3]","TBARS [1, 3]","Urea clearance [1, 3]","Creatinine clearance [1, 4]","GSH [1, 4]","Serum creatinine [1, 4]","Serum protein [1, 4]","Serum urea [1, 4]","TBARS [1, 4]","Urea clearance [1, 4]",Serum Creatinine after 8th week [2],Serum Creatinine after 8th week (% Control) [2],Total Serum Protein Levels after 8th week [2],Total Serum Protein Levels after 8th week (% Control) [2],Total Protein in Kidney Homogenate (% Control) [2],Total Protein in Kidney Homogenate Mean [2],other results
CCOC(=O)[C@H](CCc1ccccc1)N[C@@H](C)C(=O)N1[C@H](C(=O)O)C[C@@H]2CCC[C@@H]21 [Ramipril],0.54 ± 0.05 mL/min,8.48 ± 0.59 nM/mg,0.90 ± 0.05 mg/dL,5.30 ± 0.36 g/dL,98.33 ± 6.15 mg/dL,0.716 ± 0.06 nM/mg,0.41 ± 0.05 mL/min,0.61 ± 0.07 mL/min,10.57 ± 0.37 nM/mg,0.85 ± 0.06 mg/dL,5.67 ± 0.27 g/dL,87.83 ± 5.23 mg/dL,0.614 ± 0.06 nM/mg,0.45 ± 0.05 mL/min,–,–,–,–,–,–,–
"CCN(CCO)CCCC(C)Nc1ccnc2cc(Cl)ccc12 (centres unmarked) [Hydroxychloroquine, 2-[{4-[(7-chloroquinolin-4-yl)amino]pentyl}(ethyl)amino]ethanol]",0.60 ± 0.06 mL/min,8.59 ± 0.76 nM/mg,0.87 ± 0.07 mg/dL,5.57 ± 0.20 g/dL,91.29 ± 7.29 mg/dL,0.726 ± 0.06 nM/mg,0.36 ± 0.03 mL/min,0.67 ± 0.10 mL/min,14.29 ± 1.33 nM/mg,0.74 ± 0.12 mg/dL,5.95 ± 0.31 g/dL,83.64 ± 6.60 mg/dL,0.608 ± 0.06 nM/mg,0.42 ± 0.04 mL/min,2.80 mg/dL,(88.33) % Control,5.39 g/dL,(112.24) % Control,(107.68) % Control,1003.83 µg/mL,TBARS (% Control) [2]: (57.32) % Control; TBARS Mean [2]: 0.47 nM/mg
CCCc1nc2c(C)cc(-c3nc4ccccc4n3C)cc2n1Cc1ccc(-c2ccccc2C(=O)O)cc1 [Telmisartan],0.73 ± 0.07 mL/min,9.65 ± 1.24 nM/mg,1.02 ± 0.13 mg/dL,5.94 ± 0.46 g/dL,92.39 ± 4.06 mg/dL,0.675 ± 0.07 nM/mg,0.45 ± 0.05 mL/min,0.77 ± 0.04 mL/min,13.82 ± 0.34 nM/mg,0.78 ± 0.07 mg/dL,6.53 ± 0.40 g/dL,82.71 ± 6.53 mg/dL,0.560 ± 0.06 nM/mg,0.47 ± 0.04 mL/min,–,–,–,–,–,–,–
CCCCc1nc(Cl)c(CO)n1Cc1ccc(-c2ccccc2-c2nn[nH]n2)cc1 [Losartan],0.59 ± 0.06 mL/min,8.66 ± 0.48 nM/mg,1.23 ± 0.18 mg/dL,5.23 ± 0.31 g/dL,101.45 ± 2.69 mg/dL,0.760 ± 0.05 nM/mg,0.33 ± 0.02 mL/min,0.67 ± 0.12 mL/min,12.78 ± 1.48 nM/mg,0.99 ± 0.05 mg/dL,5.75 ± 0.23 g/dL,93.10 ± 4.45 mg/dL,0.670 ± 0.05 nM/mg,0.44 ± 0.03 mL/min,3.00 mg/dL,(94.64) % Control,5.45 g/dL,(113.21) % Control,(98.15) % Control,909.50 µg/mL,TBARS (% Control) [2]: (76.83) % Control; TBARS Mean [2]: 0.63 nM/mg
CCOc1nc2cccc(C(=O)O)c2n1Cc1ccc(-c2ccccc2-c2nc(=O)o[nH]2)cc1 [Azilsartan],0.69 ± 0.05 mL/min,9.54 ± 1.54 nM/mg,0.98 ± 0.07 mg/dL,5.79 ± 0.37 g/dL,89.83 ± 4.67 mg/dL,0.624 ± 0.11 nM/mg,0.41 ± 0.07 mL/min,0.74 ± 0.04 mL/min,13.49 ± 0.90 nM/mg,0.87 ± 0.04 mg/dL,6.76 ± 0.16 g/dL,75.94 ± 4.11 mg/dL,0.540 ± 0.04 nM/mg,0.44 ± 0.03 mL/min,–,–,–,–,–,–,–
